Experiment [1] relates to E6SM. The experiment in a line: Compound tested for cytotoxicity in human embryonic skin muscle E6SM cell cultures. The class given is functional.
For experiment [2], the target named is T1, Adenosylhomocysteinase (Homo sapiens, UniProt P23526). As to the kind of experiment: Binding affinity against S-Adenosyl-homocysteine hydrolase was determined.
Target sequence in this assay (P23526 whole entry): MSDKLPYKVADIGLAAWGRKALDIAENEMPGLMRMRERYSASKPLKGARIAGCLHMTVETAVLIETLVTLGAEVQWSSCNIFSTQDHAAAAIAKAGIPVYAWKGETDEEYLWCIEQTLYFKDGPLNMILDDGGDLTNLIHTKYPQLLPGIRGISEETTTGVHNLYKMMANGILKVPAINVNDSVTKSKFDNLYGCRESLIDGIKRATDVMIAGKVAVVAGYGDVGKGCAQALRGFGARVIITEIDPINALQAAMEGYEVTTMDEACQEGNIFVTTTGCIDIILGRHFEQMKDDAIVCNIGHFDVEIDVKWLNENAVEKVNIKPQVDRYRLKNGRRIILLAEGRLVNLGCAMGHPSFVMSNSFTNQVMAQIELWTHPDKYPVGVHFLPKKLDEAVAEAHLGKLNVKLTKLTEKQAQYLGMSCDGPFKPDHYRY
Experiment [3] concerns the target T1, Adenosylhomocysteinase. As to the kind of experiment: Enzyme kinetic property: kinact value was determined.
Target sequence in this assay (P23526 2-432 limits assumed): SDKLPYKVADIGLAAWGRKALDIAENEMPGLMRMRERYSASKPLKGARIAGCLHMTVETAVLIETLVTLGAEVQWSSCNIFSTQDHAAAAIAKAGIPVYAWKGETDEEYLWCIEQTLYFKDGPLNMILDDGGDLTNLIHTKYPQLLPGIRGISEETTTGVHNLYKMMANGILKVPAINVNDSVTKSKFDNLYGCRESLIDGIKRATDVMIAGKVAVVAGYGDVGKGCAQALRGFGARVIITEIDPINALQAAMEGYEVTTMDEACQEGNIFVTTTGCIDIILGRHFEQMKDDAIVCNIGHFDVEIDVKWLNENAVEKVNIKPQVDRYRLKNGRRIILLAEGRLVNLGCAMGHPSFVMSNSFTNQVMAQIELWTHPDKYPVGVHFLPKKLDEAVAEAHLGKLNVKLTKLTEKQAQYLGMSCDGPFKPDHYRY
The target in experiment [4] is T1, Adenosylhomocysteinase. The experiment in a line: Change in the S-Adenosyl-homocysteine hydrolase enzyme's NAD+ content until complete inactivation was determined.
Target sequence in this assay (P23526 2-432 limits assumed): as above
The test system of experiment [5] is Punta Toro virus. As to the kind of experiment: Antiviral activity against Punta Toro virus; No activity. It is filed as functional, organism-based.
Experiment [6] relates to Junin virus. The experiment in a line: Activity against Junin virus was determined. It is filed as functional. To be noted: Mammarenavirus juninense.
In experiment [7] the test system is Coxsackievirus B4. The experiment in a line: Antiviral activity against Coxsackie B4 virus; No activity. The class given is functional, organism-based.
In experiment [8] the test system is HEL. As to the kind of experiment: Antiviral activity against Cytomegalovirus virus (CMV) strain AD-169 in HEL cells; No specific activity. The settings on record: Homo sapiens. The class given is functional, cell-based.
Experiment [9] has as its system Human respirovirus 3. As to the kind of experiment: Antiviral activity against Parainfluenza-3; No activity. The class given is functional, organism-based.
The test system of experiment [10] is Vero. As to the kind of experiment: Compound tested for cytotoxicity in vero cell culture was determined. The class given is functional, Chlorocebus sabaeus.
In experiment [11] the test system is Tacaribe virus. As to the kind of experiment: Activity against Taccaribe virus was determined. The class given is functional. To be noted: Mammarenavirus tacaribeense.
Experiment [12] has as its system HEL. As to the kind of experiment: Antiviral activity against Cytomegalovirus virus (CMV) strain Davis in HEL cells; No specific activity. It is filed as functional, cell-based. The settings on record: Homo sapiens.
The subject of experiment [13] is Sindbis virus. As to the kind of experiment: Antiviral activity against Sindbis; No activity. It is filed as functional, organism-based.

≈ marks a conversion by molar mass, not a printed value. Calls of active or inactive are those of the source. No cut-off for these calls is given here.

The molecule `C#CSC[C@H]1OC(n2cnc3c(N)ncnc32)[C@H](O)[C@@H]1O` (stereo partly specified) displayed an MTC in experiment [1] of 30 µM. The molecule also showed an inhibition constant Ki in experiment [2] of 10 µM. The molecule further gave a K inact in experiment [3] of 0.12 min⁻¹. For the same molecule, the NAD in [4] was 36%.
`N#CSC[C@H]1OC(n2cnc3c(N)ncnc32)[C@H](O)[C@@H]1O` (stereo partly specified) registered an MTC in experiment [1] greater than 650 µM. In addition, the Ki in experiment [2] came out at 67 µM. Also, in experiment [3], the K inact was found to be 0.59 min⁻¹. The molecule also had an NAD in [4] of 16%.
On to `C=CSC[C@H]1OC(n2cnc3c(N)ncnc32)[C@H](O)[C@@H]1O` (stereo partly specified), for which the MIC result in [5], in [7], in experiment [8], in [9], in [12] and in experiment [13] was “inactive” throughout. Further, the MIC was 65 µM (≈ 20.1 µg/mL) in experiment [6] and 40 µM (≈ 12.4 µg/mL) in experiment [11]. Moreover, the MTC in [1] and in experiment [10] was greater than 650 µM each time. Also, in experiment [2], the affinity corresponds to a Ki of 4 µM. The K inact in [3] stood at 0.07 min⁻¹. Also, the NAD in [4] is 18%.

(Values after ChEMBL document CHEMBL1136374, “Inactivation of S-adenosyl-L-homocysteine hydrolase with novel 5'-thioadenosine derivatives. Antiviral effects” (Bioorg Med Chem Lett, 2003).)
